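Five concentrations, 48 hours, 96-well plates. GI50 = concentration required for 50% inhibition of growth. TGI marks complete inhibition of growth.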 Where a SMILES comes first, the peptide text is derived from it. [ ]: non-standard residue; d: D form. The star is where a group is joined. NMeF = CN[C@@H](Cc1ccccc1)C(=O)O; NMeV = CN[C@H](C(=O)O)C(C)C; Boc = CC(C)(C)OC(=O)*; OBn = c1ccc(CO*)cc1 Where only a bound is given, the exact number is not on record here.

Holding throughout (test): inhibition of tumour cell growth, NCI panel, 48 h
Experiment [1] concerns A549 NSCLC.
Experiment [2] relates to COLO 205 colon.
The subject of experiment [3] is DU-145 prostate.
Experiment [4] deals with MCF7 breast.
The test system of experiment [5] is MDA-MB-435.
Experiment [6] concerns OVCAR-4 ovarian.
For experiment [7], the system named is SF-539 CNS.
Experiment [8] relates to SK-MEL-2 melanoma.
In experiment [9] the test system is SN12C renal.
Experiment [10] concerns SR leukemia.

In the case of `CCOC(=O)c1c(Cl)c2c(n1Cc1cccc(OC)c1)-c1oncc1CC2`, the GI50 in experiment [1] is 5.16 µM; in experiment [2], 1.62 µM; in experiment [3] it was 2.42 µM; in [4], 0.62 µM; in experiment [5] it was 0.298 µM; in experiment [6], 6.46 µM. The GI50 in [7] was 2.12 µM; in experiment [8], 5.61 µM; in experiment [9], 6.04 µM; in experiment [10], 0.444 µM. The TGI in experiment [1] was > 100 µM; in [2], 11.3 µM; in [3] it was 27 µM; in experiment [4], > 100 µM; in [5], 15.6 µM; in [6], > 100 µM. Also, the TGI in experiment [7] is 10.6 µM; in experiment [8], 67.3 µM; in experiment [9], > 100 µM; in experiment [10] it was 24.1 µM.

`CC(C)[C@@H](C(=O)N1CCC[C@H]1C(=O)OCc1ccccc1)N(C)C(=O)[C@H](C(C)C)N(C)C(=O)[C@H](Cc1ccccc1)N(C)C(=O)[C@H](NC(=O)OC(C)(C)C)C(C)C` (Boc-[dV][NMeF][NMeV][NMeV]P-OBn): the figures for the GI50 in [1] and in [2] were > 100 µM and 36.1 µM, respectively. Besides, the TGI in experiment [1] was > 100 µM; in experiment [2] it was > 100 µM; in experiment [3], > 50 µM; in [4] it was > 50 µM; in [5], > 50 µM; in experiment [6], > 100 µM. Besides, the TGI in [7], in [8], in [9] and in [10] was > 100 µM in each case.

For the compound `CCN(CC)CCCCNc1ncc2cc(-c3cc(OC)cc(OC)c3)c(NC(=O)NC(C)(C)C)nc2n1`, the GI50 is 7.84 µM in [1]; 8.08 µM in [2]; 8.08 µM in experiment [3]; 5.35 µM in experiment [4]; 4.87 µM in [5]; 1.84 µM in experiment [6]. Moreover, the GI50 in experiment [7] is 1.99 µM; in [8] it was 3.67 µM; in experiment [9], 3.52 µM; in [10], 2.11 µM. The TGI turned out to be 23 µM in [1]; 22.1 µM in experiment [2]; 22.9 µM in [3]; 23.1 µM in experiment [4]; 18.2 µM in experiment [5]; 25.5 µM in experiment [6]. Moreover, the TGI in experiment [7] came out at 7.16 µM; in experiment [8], 13 µM; in [9], 15.6 µM; in experiment [10] it was 5.68 µM.

As to `Cc1[nH]nc2ccc3nc(-c4ccc5[nH]ncc5c4)c4c(c3c12)CCCC4`, the GI50 in experiment [1] was 0.932 µM; in experiment [2], 1.09 µM; in experiment [3] it was 1.05 µM; in experiment [4] it was 3.54 µM; in experiment [5], 1.23 µM; in [6] it was 2.12 µM. The GI50 in [7] was 1.62 µM; in experiment [8] it was 0.476 µM; in experiment [9], 2.09 µM; in [10] it was 0.525 µM. Besides, the TGI came to 12.4 µM in experiment [1]; 10.8 µM in experiment [2]; 12.2 µM in experiment [3]; 17.1 µM in experiment [4]; 12.9 µM in experiment [5]; 28 µM in [6]. Besides, the TGI in experiment [7] is 8.44 µM; in experiment [8], 2.48 µM; in experiment [9] it was 12.7 µM; in experiment [10], 25.7 µM.

Turning to `N#Cc1c(N)nc(NCc2ccccc2)c(C#N)c1-c1ccccc1Cl`, the GI50 is 21.3 µM in [1]; 74 µM in experiment [2]; 21.5 µM in [3]; 20 µM in experiment [4]; 21.8 µM in [5]; 5.04 µM in [6]. In addition, the GI50 is 17.9 µM in [7], 22.9 µM in [8], 4.53 µM in [9] and 10.8 µM in experiment [10]. Moreover, the TGI was > 100 µM in experiment [1]; > 100 µM in experiment [2]; 88.6 µM in [3]; > 100 µM in experiment [4]; > 100 µM in experiment [5]; 45.3 µM in [6]. Further, the TGI in [7] worked out at 40.5 µM; in experiment [8] it was 93.5 µM; in experiment [9] it was 25.1 µM; in experiment [10], 32.8 µM.

`COc1ccc(CCN2CCC(Nc3nc4ccccc4n3Cc3ccc(F)cc3)CC2)cc1`: the GI50 in [1] was 1.82 µM; in [2], 1.52 µM; in [3], 1.94 µM; in experiment [4], 1.41 µM; in experiment [5], 1.5 µM; in experiment [6], 1.25 µM. The GI50 in [7] is 1.77 µM; in experiment [8], 2.29 µM; in experiment [9], 1.51 µM; in [10], 1.58 µM. The TGI was 3.75 µM in [1]; 2.98 µM in experiment [2]; 3.65 µM in [3]; 2.81 µM in experiment [4]; 3 µM in [5]; 2.57 µM in [6]. Moreover, the TGI in experiment [7] stood at 3.25 µM; in experiment [8] it was 4.78 µM; in experiment [9], 2.96 µM; in experiment [10] it was 3.83 µM.

Regarding `COc1ccc2cc(Cn3cc[n+](Cc4ccc5ccccc5c4)c3)ccc2c1`, the GI50 was 8.16 µM in experiment [1]; 1.44 µM in [2]; 4.49 µM in experiment [3]; 2.57 µM in [4]; 1.79 µM in experiment [5]; 2.27 µM in experiment [6]. Further, the GI50 is 2.37 µM in experiment [7], 1.91 µM in experiment [8], 2.53 µM in experiment [9] and 1.68 µM in experiment [10]. Besides, the TGI in [1] came out at 23.7 µM; in experiment [2], 3.28 µM; in [3] it was 16.9 µM; in experiment [4] it was 9.88 µM; in experiment [5], 4.12 µM; in experiment [6], 8.06 µM. For the same compound, the TGI in experiment [7] was 7.81 µM; in experiment [8], 4.65 µM; in [9] it was 8.97 µM; in experiment [10], 4.27 µM.

For the compound `CC(C(=O)O)/C(=C\c1ccc2c(c1)OCO2)C(=O)O` (configuration not stated), the TGI in [1], in [2], in experiment [3], in experiment [4], in experiment [5] and in experiment [6] was > 100 µM throughout. Also, the TGI in experiment [7], in experiment [8], in [9] and in experiment [10] was > 100 µM each time.

For `CC(C)NC(=O)OCc1c(COC(=O)NC(C)C)c(-c2ccc(Cl)c(Cl)c2)n2c1CCC2`, the TGI in [1] was 29.6 µM; in experiment [2], 71.3 µM; in experiment [3] it was > 100 µM; in experiment [4] it was > 100 µM; in [5], > 100 µM; in experiment [6] it was > 78.8 µM. Moreover, the TGI was 65.4 µM in experiment [7], > 65.1 µM in experiment [8], 68.2 µM in experiment [9] and 36.3 µM in experiment [10].

In the case of `CSC1=Nc2c(c(C)c(C)n2COC(CO)CO)C2=NC(=O)CC(C)N12` (configuration not stated), the GI50 in [1], in experiment [2], in experiment [3], in [4], in experiment [5] and in experiment [6] was > 100 µM each time. For the same compound, the GI50 in experiment [7], in experiment [8], in [9] and in experiment [10] was > 100 µM throughout. For the same compound, the TGI in [1], in experiment [2], in [3], in experiment [4], in [5] and in experiment [6] was > 100 µM throughout. For the same compound, the TGI in experiment [7], in experiment [8], in experiment [9] and in experiment [10] was > 100 µM throughout.

As for `Clc1ccc(C2=NN[C@H](c3cn(-c4ccccc4)nc3-c3ccccc3)C2)cc1`, the GI50 is 3.37 µM in experiment [1]; 4.63 µM in experiment [2]; 6.47 µM in experiment [3]; 4.8 µM in [4]; 5.13 µM in experiment [5]; 4.87 µM in experiment [6]. In addition, the GI50 was 8.95 µM in experiment [7], 4.85 µM in experiment [8], 3.61 µM in experiment [9] and 11.4 µM in experiment [10]. For the same compound, the TGI in experiment [1] was 14.4 µM; in experiment [2] it was 22.4 µM; in [3] it was 28.2 µM; in [4] it was 17.9 µM; in [5], > 100 µM; in experiment [6] it was 34.3 µM. Moreover, the TGI is 23 µM in experiment [7], 16.3 µM in [8], 17.2 µM in experiment [9] and > 100 µM in [10].

Consider `CS(=O)(=O)c1ccc(Oc2cc(F)cc(C#N)c2)c2c1[C@H](O)C(F)(F)C2`, for which the GI50 in experiment [1], in experiment [2], in experiment [3], in experiment [4], in experiment [5] and in [6] was > 100 µM each time. The GI50 in [7], in experiment [8], in experiment [9] and in [10] was > 100 µM in each case. For the same compound, the TGI in experiment [1], in experiment [2], in experiment [3], in [4], in experiment [5] and in experiment [6] was > 100 µM each time. Moreover, the TGI in [7], in experiment [8], in experiment [9] and in [10] was > 100 µM throughout.

`O=C(Nc1ccc(OCc2nnc(-c3ccccc3)o2)c(F)c1)Nc1ccc(Cl)c(C(F)(F)F)c1`: the GI50 in experiment [1] was 1.91 µM; in [2], 2.11 µM; in experiment [3] it was 1.8 µM; in [4], 2.29 µM; in experiment [5], 2.71 µM; in experiment [6], 2.49 µM. Besides, the GI50 is 2.41 µM in experiment [7], 2.64 µM in experiment [8], 1.91 µM in [9] and 1.37 µM in [10]. Besides, the TGI in experiment [1] was 35.5 µM; in experiment [2], 5.52 µM; in [3], 3.53 µM; in [4] it was 8.93 µM; in experiment [5], > 100 µM; in [6] it was 8.52 µM. Besides, the TGI came out at 13 µM in experiment [7], 7.12 µM in experiment [8], 6.23 µM in experiment [9] and 4.31 µM in [10].

Regarding `C=CC[C@@H]1/C=C(\C)C[C@H](C)C[C@H](OC)[C@H]2O[C@@](O)(C(=O)C(=O)N3CCCC[C@H]3C(=O)O[C@H](/C(C)=C/C3CC[C@@H](O)[C@H](OC)C3)[C@H](C)[C@@H](O)CC1=O)[C@H](C)C[C@@H]2OC` (some centres not stated), the GI50 is 12.7 µM in [1]; 19.3 µM in [2]; 16.1 µM in experiment [3]; 13.8 µM in [4]; 16.2 µM in experiment [5]; 13.9 µM in experiment [6]. The GI50 was 17.5 µM in experiment [7], 17.4 µM in [8], 16.3 µM in experiment [9] and 14.1 µM in experiment [10]. The TGI in experiment [1] was determined as 25.7 µM; in [2], 36.6 µM; in experiment [3], 30.2 µM; in [4], 29 µM; in experiment [5], 37.7 µM; in [6] it was 27.2 µM. In addition, the TGI in experiment [7] was 34 µM; in experiment [8], 33.4 µM; in experiment [9], 31.6 µM; in [10], 39.8 µM.

Take `O=C(CN1C(=O)S/C(=C\C(Cl)=C\c2ccccc2)C1=O)NCCc1ccc(O)cc1`: the GI50 in [1] is 3.1 µM; in experiment [2], 2.31 µM; in [3] it was 1.72 µM; in experiment [4] it was 1.79 µM; in [5] it was 2.09 µM; in [6], 2.61 µM. Besides, the GI50 in experiment [7] was 1.74 µM; in experiment [8], 2.64 µM; in experiment [9], 2.34 µM; in [10], 0.955 µM. In addition, the TGI in experiment [1] was > 100 µM; in experiment [2], 5.68 µM; in experiment [3], 3.55 µM; in experiment [4], 11.5 µM; in [5] it was 5.28 µM; in experiment [6], 11.9 µM. Also, the TGI in experiment [7] is 3.63 µM; in experiment [8], 7.74 µM; in [9], 9.79 µM; in experiment [10], > 100 µM.

For the origin of these results see PubChem BioAssay (NCI).
